# Reference: ChEMBL document CHEMBL5143564, “PES derivative PESA is a potent tool to globally profile cellular targets of PES” (Bioorg Med Chem Lett, 2022)
# Calls of active or inactive are those of the source. The rule behind the calls is not given here.
# Assays:
# DOHH-2 [1] = test: Up regulation of HSP90alpha expression in human DOHH-2 cells at 0.5 to 8 uM measured after 24 hrs by Western blot analysis; format: functional, cell-based; settings: dose 0.5-8 µM
# [2] = biological target: T1, D-3-phosphoglycerate dehydrogenase (Homo sapiens) (UniProt O43175); test: Binding affinity to D-3-phosphoglycerate dehydrogenase in human DOHH-2 cells measured after 6 hrs by pull-down assay; format: cell-based; settings: DDE = dose-dependent effect
# T1 sequence (whole entry): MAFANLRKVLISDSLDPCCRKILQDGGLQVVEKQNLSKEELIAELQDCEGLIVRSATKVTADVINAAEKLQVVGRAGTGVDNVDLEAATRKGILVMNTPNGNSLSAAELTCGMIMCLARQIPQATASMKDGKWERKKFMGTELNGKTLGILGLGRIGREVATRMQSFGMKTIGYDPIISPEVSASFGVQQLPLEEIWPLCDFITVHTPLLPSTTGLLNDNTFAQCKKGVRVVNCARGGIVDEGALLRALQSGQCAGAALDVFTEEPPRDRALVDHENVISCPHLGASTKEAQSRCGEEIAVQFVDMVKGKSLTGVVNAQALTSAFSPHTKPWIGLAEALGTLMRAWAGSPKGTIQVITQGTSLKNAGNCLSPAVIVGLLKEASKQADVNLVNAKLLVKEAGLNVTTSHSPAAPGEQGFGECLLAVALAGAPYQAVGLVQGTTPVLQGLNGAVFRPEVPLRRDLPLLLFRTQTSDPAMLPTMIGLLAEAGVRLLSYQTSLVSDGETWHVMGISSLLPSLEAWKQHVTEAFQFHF
# HEK-293T = test: Cytotoxicity against HEK293T cells up to 20 uM measured after 24 hrs; format: toxicity, cell-based; settings: human
# DOHH-2 [3] = test: Induction of autophagy in human DOHH-2 cells assessed as reduction in p62 expression at 8 uM measured after 4 to 24 hrs by Western blot analysis; format: functional, cell-based; settings: time 4-24 hrs
# DOHH-2 [4] = test: Up regulation of HSP70 expression in human DOHH-2 cells at 8 uM measured after 4 to 24 hrs by Western blot analysis; format: functional, cell-based; settings: time 4-24 hrs
# [5] = biological target: T2, Protein disulfide-isomerase A3 (Homo sapiens) (UniProt P30101); test: Binding affinity to PDIA3 in human DOHH-2 cells measured after 6 hrs by pull-down assay; format: cell-based; settings: DDE = dose-dependent effect
# T2 sequence (whole entry): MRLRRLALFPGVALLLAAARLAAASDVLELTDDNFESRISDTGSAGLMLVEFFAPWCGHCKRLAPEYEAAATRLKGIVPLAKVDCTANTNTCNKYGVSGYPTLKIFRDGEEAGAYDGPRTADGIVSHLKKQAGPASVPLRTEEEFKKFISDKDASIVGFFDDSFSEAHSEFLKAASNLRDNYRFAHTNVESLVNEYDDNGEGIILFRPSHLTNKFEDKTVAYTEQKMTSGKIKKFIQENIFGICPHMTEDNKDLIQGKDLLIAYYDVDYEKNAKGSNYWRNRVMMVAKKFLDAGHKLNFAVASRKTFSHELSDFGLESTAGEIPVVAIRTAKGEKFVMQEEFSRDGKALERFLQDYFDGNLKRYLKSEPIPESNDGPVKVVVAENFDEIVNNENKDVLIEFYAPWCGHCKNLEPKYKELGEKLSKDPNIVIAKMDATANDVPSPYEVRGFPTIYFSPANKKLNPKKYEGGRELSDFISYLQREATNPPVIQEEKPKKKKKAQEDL
# [6] = GSH reactivity in pH 7.4 buffer assessed as GSH adduct formation at 1 mM by HPLC analysis; format: physicochemical; settings: pH 7.4, 1000 µM
# [7] = biological target: T3, Glutathione S-transferase omega-1 (Homo sapiens) (UniProt P78417); test: Binding affinity to GSTO1 in human DOHH-2 cells measured after 6 hrs by pull-down assay; format: cell-based; settings: DDE = dose-dependent effect
# T3 sequence (whole entry): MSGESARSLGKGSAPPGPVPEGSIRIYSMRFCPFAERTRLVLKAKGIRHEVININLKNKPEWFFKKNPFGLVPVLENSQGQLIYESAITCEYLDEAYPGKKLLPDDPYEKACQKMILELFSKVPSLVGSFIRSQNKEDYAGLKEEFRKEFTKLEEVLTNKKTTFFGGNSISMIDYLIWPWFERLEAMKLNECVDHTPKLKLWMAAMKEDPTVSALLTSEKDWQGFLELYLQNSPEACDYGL
# [8] = biological target: T4, Peroxiredoxin-5, mitochondrial (Homo sapiens) (UniProt P30044); test: Binding affinity to PRDX5 in human MDA-MB-453 cells measured after 6 hrs by pull-down assay; format: cell-based; settings: dose <= 20.0 µM, DDE = dose-dependent effect
# T4 sequence (whole entry): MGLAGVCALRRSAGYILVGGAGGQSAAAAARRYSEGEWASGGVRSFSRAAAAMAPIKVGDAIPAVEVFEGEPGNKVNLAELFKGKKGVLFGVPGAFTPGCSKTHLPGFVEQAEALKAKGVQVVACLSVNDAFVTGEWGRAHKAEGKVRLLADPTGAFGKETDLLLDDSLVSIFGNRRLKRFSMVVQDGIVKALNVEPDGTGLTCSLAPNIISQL
# [9] = biological target: T5, Peroxiredoxin-1 (Homo sapiens) (UniProt Q06830); test: Binding affinity to PRDX1 in human MDA-MB-453 cells measured after 6 hrs by pull-down assay; format: cell-based; settings: dose <= 20.0 µM, DDE = dose-dependent effect
# T5 sequence (whole entry): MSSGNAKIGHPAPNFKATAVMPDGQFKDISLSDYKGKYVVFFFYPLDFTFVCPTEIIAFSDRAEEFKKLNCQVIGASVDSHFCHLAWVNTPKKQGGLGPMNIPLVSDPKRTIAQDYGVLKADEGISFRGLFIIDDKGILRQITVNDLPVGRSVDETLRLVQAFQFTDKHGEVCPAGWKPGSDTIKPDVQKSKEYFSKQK
# [10] = biological target: T6, Peroxiredoxin-6 (Homo sapiens) (UniProt P30041); test: Binding affinity to PRDX6 in human DOHH-2 cells by MS analysis; format: cell-based
# T6 sequence (whole entry): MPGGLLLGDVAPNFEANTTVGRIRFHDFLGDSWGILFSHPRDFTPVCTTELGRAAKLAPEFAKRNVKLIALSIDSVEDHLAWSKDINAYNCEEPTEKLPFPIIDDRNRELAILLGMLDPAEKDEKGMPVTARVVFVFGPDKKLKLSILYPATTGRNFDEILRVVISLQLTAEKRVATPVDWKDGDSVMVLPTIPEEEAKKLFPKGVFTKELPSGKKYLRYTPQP
# [11] = biological target: T5, Peroxiredoxin-1 (Homo sapiens); test: Binding affinity to PRDX1 in human DOHH-2 cells by MS analysis; format: cell-based
# [12] = biological target: T3, Glutathione S-transferase omega-1 (Homo sapiens); test: Binding affinity to GSTO1 in human MDA-MB-453 cells measured after 6 hrs by pull-down assay; format: cell-based; settings: dose <= 20.0 µM, DDE = dose-dependent effect
# [13] = biological target: Coronin-1A (Homo sapiens) (UniProt P31146); test: Binding affinity to coronin-1A in human DOHH-2 cells measured after 6 hrs by pull-down assay; format: cell-based; settings: DDE = dose-dependent effect
# [14] = biological target: T1, D-3-phosphoglycerate dehydrogenase (Homo sapiens); test: Binding affinity to D-3-phosphoglycerate dehydrogenase in human DOHH-2 cells by MS analysis; format: cell-based
# [15] = biological target: Tubulin beta (Homo sapiens) (UniProt P68371+Q9H4B7+Q13509+P04350+Q3ZCM7+P07437+Q13885+Q9BVA1+Q9BUF5+A6NNZ2); test: Binding affinity to beta-tubulin in human MDA-MB-453 cells measured after 6 hrs by pull-down assay; format: cell-based; settings: dose <= 20.0 µM, DDE = dose-dependent effect
# Coronin-1A (Homo sapiens), sequence (P31146 whole entry): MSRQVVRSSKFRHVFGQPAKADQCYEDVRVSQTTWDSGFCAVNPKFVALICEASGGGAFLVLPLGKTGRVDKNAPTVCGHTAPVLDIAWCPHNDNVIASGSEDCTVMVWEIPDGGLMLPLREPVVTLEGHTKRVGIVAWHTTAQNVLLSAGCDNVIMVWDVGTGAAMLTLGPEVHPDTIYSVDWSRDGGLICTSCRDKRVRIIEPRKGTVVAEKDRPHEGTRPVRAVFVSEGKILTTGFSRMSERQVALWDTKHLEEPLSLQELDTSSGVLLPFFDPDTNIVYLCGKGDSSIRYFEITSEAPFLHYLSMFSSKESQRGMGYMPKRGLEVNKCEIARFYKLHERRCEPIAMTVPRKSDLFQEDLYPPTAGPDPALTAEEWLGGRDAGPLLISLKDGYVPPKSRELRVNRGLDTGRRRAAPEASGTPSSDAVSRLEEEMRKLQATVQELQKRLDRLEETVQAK
smiles,measurement,setting,value
C#Cc1cccc(C#CS(N)(=O)=O)c1,Activity,DOHH-2 [1],Active
same,Activity,[2],Dde
same,Activity,HEK-293T,Non-Toxic
same,Activity,DOHH-2 [3],Active
same,Activity,DOHH-2 [4],Active
same,Activity,[5],Dde
same,Activity,[6],Active
same,Activity,[7],Dde
same,Activity,[8],Dde
same,Activity,[9],Dde
same,Activity,[10],Active
same,Activity,[11],Active
same,Activity,[12],Dde
same,Activity,[13],Dde
same,Activity,[14],Active
same,Activity,[15],Dde
